In PubChem BioAssay (NCI):
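96-well plates; 48 h exposure; 5 concentrations. Endpoints by linear interpolation between flanking doses. Not reached: highest tested concentration assigned. Here, GI50 denotes the concentration required for 50% inhibition of growth. TGI is the concentration that stops growth completely.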

How the values were obtained:
Experiment in all cases: DTP human tumour cell line panel, 48 h
SF-295 CNS = test system: SF-295 CNS
COLO 205 colon = test system: COLO 205 colon
TK-10 renal = test system: TK-10 renal
NCI-H522 lung = test system: NCI-H522 lung
RXF 393 renal = test system: RXF 393 renal
786-0 renal = test system: 786-0 renal
SF-268 CNS = test system: SF-268 CNS
A549 NSCLC = test system: A549 NSCLC
SK-OV-3 ovarian = test system: SK-OV-3 ovarian
MDA-N = test system: MDA-N
UACC-62 melanoma = test system: UACC-62 melanoma
NCI-H226 lung = test system: NCI-H226 lung
MOLT-4 leukemia = test system: MOLT-4 leukemia
M14 melanoma = test system: M14 melanoma
HS 578T breast = test system: HS 578T breast

| Structure (SMILES) | TGI (SF-295 CNS) | TGI (COLO 205 colon) | TGI (TK-10 renal) | TGI (NCI-H522 lung) | TGI (RXF 393 renal) | TGI (786-0 renal) | TGI (SF-268 CNS) | TGI (A549 NSCLC) | TGI (SK-OV-3 ovarian) | TGI (MDA-N) | TGI (UACC-62 melanoma) | TGI (NCI-H226 lung) | TGI (MOLT-4 leukemia) | TGI (M14 melanoma) | TGI (HS 578T breast) | GI50 (SF-295 CNS) | GI50 (SF-268 CNS) | GI50 (A549 NSCLC) | GI50 (MOLT-4 leukemia) |
| --- | --- | --- | --- | --- | --- | --- | --- | --- | --- | --- | --- | --- | --- | --- | --- | --- | --- | --- | --- |
| Cc1cc(NCCCCCCCCCC[n+]2c(C)cc(N)c3ccccc32)c2ccccc2n1 | 13.6 µM | 1.22 µM | 18.3 µM | > 100 µM | > 100 µM | 15.1 µM | > 39 µM | 61.8 µM | 12.9 µM | 3.61 µM | 4.17 µM | > 100 µM | 5.23 µM | 12 µM |  |  |  |  |  |
| O=c1oc2ccccc2c(O)c1C(c1ccc(/C=C/c2ccccc2)cc1)c1c(O)c2ccccc2oc1=O |  | 71.8 µM | > 100 µM | 49.1 µM |  | 63.8 µM | 64.9 µM |  |  | 43.9 µM | > 100 µM | 74.4 µM | 66.8 µM |  | 75.4 µM |  |  |  |  |
| CSC1=N/C(=C\c2ccco2)C(=O)N1CN1CCCCC1 | > 100 µM | > 100 µM | > 100 µM | > 100 µM |  | > 100 µM | > 100 µM | > 100 µM | > 100 µM | > 100 µM | > 100 µM | > 100 µM | > 100 µM | > 100 µM | > 100 µM |  |  |  |  |
| CC1=CC(=O)C(=O)C2=C1OC1(C2)C(C)CCC2C3(C)CCC(O)C(C)(C)C3CCC21C (configuration not stated) | 35.3 µM | 32.6 µM | 34.5 µM | 30.7 µM | 33.2 µM | 33.3 µM | 63 µM | > 100 µM | 73.8 µM |  | 36.1 µM | 35.5 µM | 78.4 µM | 37.2 µM |  |  |  |  |  |
| CCSC1=N/C(=C\c2ccco2)C(Cl)=N1 | > 100 µM | > 100 µM | > 100 µM |  |  | > 100 µM | > 100 µM | > 100 µM | > 100 µM | > 100 µM | > 100 µM | > 100 µM | > 100 µM | > 100 µM | > 100 µM |  |  |  |  |
| CCOC(=O)NC(=O)c1cn(CCCOC(=O)CCCCCCCCCCC(=O)OCCCn2cc(C(=O)NC(=O)OCC)c(=O)n(C)c2=O)c(=O)n(C)c1=O | > 100 µM | > 100 µM | > 100 µM | > 100 µM | > 100 µM | > 100 µM | > 100 µM | > 100 µM | > 100 µM |  | > 100 µM | > 100 µM | > 100 µM | > 100 µM |  |  |  |  |  |
| C=C1CC(C)(COc2ccc3ccc(=O)oc3c2)OC1=O (configuration not stated) | 20.8 µM | 4.42 µM | 4.29 µM | 2.84 µM |  | 7.42 µM | 33.5 µM | 30.5 µM | 21.4 µM | 13.8 µM | 13.2 µM | 27.3 µM | 2.46 µM | 4.97 µM | 24.3 µM |  |  |  |  |
| O=C(C1C(c2ccccc2)N1C(c1ccccc1)c1ccccc1)C1C(c2ccccc2)N1C(c1ccccc1)c1ccccc1 (configuration not stated) | > 100 µM |  | 60.9 µM | 23.7 µM |  | 48.2 µM | 67.5 µM | > 100 µM | > 100 µM | > 100 µM |  |  | 33.4 µM | > 100 µM | 46.3 µM |  |  |  |  |
| Cc1ccc(/C=C/C(=O)c2sc(-c3cccnc3)nc2C)cc1 | > 100 µM | > 100 µM | > 100 µM | > 100 µM | > 100 µM | > 100 µM |  | > 100 µM | > 100 µM |  | > 100 µM | > 100 µM | > 100 µM |  |  |  |  |  |  |
| COC(=O)C1[C@@H](C(=O)OC)C12C=Cc1ccccc1C=C2 (some centres not stated) | > 100 µM | > 100 µM | > 100 µM | > 100 µM | > 100 µM | > 100 µM | > 100 µM | > 100 µM | > 100 µM |  | > 100 µM |  | > 100 µM | > 100 µM |  |  |  |  |  |
| COc1ccc2c(c1)CCc1[nH]c3ccccc3c1CCCC2 | > 10 µM | > 10 µM | > 10 µM | > 10 µM |  | > 10 µM | > 10 µM | > 10 µM | > 10 µM | > 10 µM | > 10 µM |  | > 10 µM | > 10 µM | > 10 µM |  |  |  |  |
| Cc1ccc(Nc2nc(N)nc3c2ncn3C2OC(CO)C(O)C2O)cc1 (configuration not stated) | > 100 µM | > 100 µM | > 100 µM | > 100 µM | > 100 µM | > 100 µM |  | > 100 µM | > 100 µM | > 100 µM | > 100 µM | > 100 µM | > 100 µM | > 100 µM |  |  |  |  |  |
| CCCCCCCCCCCCC(O)C1CCC(C(O)CCCCCCC(O)CCCCCCCC2=CC(C)OC2=O)O1 (configuration not stated) | > 100 µM | 44.2 µM | > 100 µM | 56.9 µM | 83 µM | > 100 µM | > 100 µM | > 100 µM |  | 71.7 µM |  | > 100 µM | 33 µM | 45.7 µM |  | 17.5 µM | 41.2 µM | 21.7 µM | 3.17 µM |
| CNn1c(C)n[nH]c1=O | > 100 µM | > 100 µM | > 100 µM | > 100 µM |  | > 100 µM | > 100 µM | > 100 µM | > 100 µM |  | > 100 µM | > 100 µM | > 100 µM | > 100 µM | > 100 µM |  |  |  |  |
| C[C@H]1C[C@H](C)c2ccccc2N(C)C1=Nc1ccccc1 | > 100 µM | 49.7 µM | 55.6 µM |  | 92.2 µM | 64 µM | > 100 µM | > 100 µM |  | 68.7 µM | > 100 µM | 83.6 µM | 72.7 µM | 56.2 µM | > 100 µM |  |  |  |  |
| O=C(c1ccco1)N(C(=S)N1CCN(c2ccccn2)CC1)C1CCCCC1 | > 100 µM | > 100 µM | > 100 µM | > 100 µM | > 100 µM | > 100 µM | > 100 µM | > 100 µM | > 100 µM |  | > 100 µM | > 100 µM | > 100 µM | > 100 µM |  |  |  |  |  |
| CCCN1CN(C(C(=O)N[C@@H]2C(=O)N3C(C(=O)O)=C(C)CSC23)c2ccc(O)cc2)CSC1=S (some centres not stated) | > 100 µM | > 100 µM | > 100 µM | > 100 µM |  | > 100 µM | > 100 µM | > 100 µM | > 100 µM |  | > 100 µM |  | > 100 µM | > 100 µM |  |  |  |  |  |
